Entries after “also recorded” stand apart in the source; their conditions may differ.
Legend:
[1] = system: Kmt2d+/βGeo mouse model of Kabuki syndrome; experiment: Morris water maze; format: in vivo; settings: 10 mg/kg/day
Excerpt: (§1) Kmt2d^+/βGeo mice, also named Mll2Gt^(RRt024)Byg, were acquired from Bay Genomics (University of California). All experimental mice were on a mixed C57BL/6J and 129/SvEv background. Expected Mendelian ratios were observed when heterozygous animals were bred to wild-type. In heterozygous crosses, however, there was uniform embryonic lethality of homozygotes by ED12, the earliest developmental stage assayed. For treatment with AR-42, mice were orally gavaged daily with drug (Selleck Chemicals, Houston, Tex.) solubilized in vehicle (0.5% methylcellulose, 0.1% Tween-80, water) or with vehicle alone. Drug delivery information was kindly provided by Drs. […] For quantification of DCX positive cells, doses of 0, 5, 10 and 25 mg/kg/day were used. […] Maxillary protrusion was evaluated by ten investigators blinded to genotype and they were asked to rate maxillary protrusion on radiographs as either large (2) or small (1). […]
Mice were placed in a 1.1 meter diameter tank filled with room temperature water dyed with non-toxic white paint. […] Latency to reach the platform was measured during each trial. […] Average number of crossings of the platform's previous location was recorded. […] For all training and probe testing, data was recorded both manually and electronically with ANY-maze software (San Diego Instruments, San Diego, Calif.) when applicable. […]

[2] = system: DCX positive cells in the GCL; experiment: Doublecortin (DCX) expression in the GCL (neurogenesis) after oral AR-42; format: in vivo, mouse
Excerpt: Kmt2d^+/βGeo mice, also named Mll2Gt^(RRt024)Byg, were acquired from Bay Genomics (University of California). All experimental mice were on a mixed C57BL/6J and 129/SvEv background. Expected Mendelian ratios were observed when heterozygous animals were bred to wild-type. In heterozygous crosses, however, there was uniform embryonic lethality of homozygotes by ED12, the earliest developmental stage assayed. For treatment with AR-42, mice were orally gavaged daily with drug (Selleck Chemicals, Houston, Tex.) solubilized in vehicle (0.5% methylcellulose, 0.1% Tween-80, water) or with vehicle alone. Drug delivery information was kindly provided by Drs. Chen and Kulp from Ohio State University (Huang et al. (2011) Mol. Pharmacol. 79:197-20619). Drug was administered for 14 days and mice were sacrificed on day 15. Morris water maze testing was initiated at day 7 and a dose of 10 mg/kg/day was used for these studies. For quantification of DCX positive cells, doses of 0, 5, 10 and 25 mg/kg/day were used. Genotyping was performed using primers B-GeoF-([…]; SEQ ID NO: 1) and B-GeoR-([…]; SEQ ID NO: 2) that are specific for the targeted allele and TcrdF-([…]; SEQ ID NO: 3) and TcrdR-([…]; SEQ ID NO: 4) that control for sufficient DNA concentration. Real-time PCR using the same primers allows discrimination between the heterozygous and homozygous state for the targeted allele. Maxillary protrusion was evaluated by ten investigators blinded to genotype and they were asked to rate maxillary protrusion on radiographs as either large (2) or small (1). […] All experiments were performed using mouse protocols approved by the Animal Care and Committee of Johns Hopkins University School of Medicine. The mouse protocols used for this study are in accordance with the guidelines used by the NIH for mouse care and handling.
Every 6th brain section was selected and then blocked with 5% Bovine Serum Albumin (BSA) at room temperature followed by incubation with primary antibodies overnight at 4° C. Secondary antibodies were then applied for 1 hour at room temperature, after which sections were mounted onto microscope slides with Vectamount with DAPI (Vector Laboratories, Burlingame, Calif.). Primary antibodies included Doublecortin (DCX) (SC-8066, Santa Cruz Biotechnology, Dallas, Tex., 1:200 goat), trimethylated H3K4 (9727L, Cell Signaling Technology, Beverly, Mass., 1:500 rabbit), and Kmt2d H-300 (SC-292359, Santa Cruz Biotechnology, Dallas, Tex., 1:500 rabbit). Non-specific binding was not observed when sections were sequentially exposed to serum (or IgG when appropriate) from the same species as the primary antibody for each experiment (i.e. rabbit for KMT2D and H3K4me3 and goat for doublecortin), followed by the secondary antibody used for KMT2D and H3K4me3 (anti-rabbit) or doublecortin (anti-goat, FIG. 29).
The area of both the GCL and DCX+ cells was measured using the NS elements 2.0 software (Nikon, Tokyo, JPN). Normalized DCX area was calculated by measuring the DCX+ area of the GCL and setting the baseline (Kmt2d^+/+) fraction to 1. A Student t-test with significance value set at P<0.05 was used for comparison of DCX+ area referenced to GCL area between genotypes and treatment arms.

H3K4me3 in the GCL = experiment: Immunofluorescence of H3K4me3 in dentate gyrus GCL after oral AR-42; format: in vivo, mouse
Excerpt: as §1
Z-stack images of slides were taken at either 10× using Zeiss Axiovert 200 with 510-Meta confocal module (Carl Zeiss, Jena, GER) or 25× using Zeiss AxioExaminer with 710NLO-Meta multiphoton (Carl Zeiss, Jena, GER). From 10× pictures, the GCL was highlighted and fluorescent intensities for both DAPI and H3K4me3 were measured at the midpoint of the entire z-stack (Zen software, Carl Zeiss, Jena, GER) with the value for Kmt2d^+/+ animals set equal to one. […]

In the case of CC(C)[C@H](C(=O)Nc1ccc(C(=O)NO)cc1)c1ccccc1 [AR-42], the “frequency of platform crossing, probe trial” value [1] is reported as “improved performance; also recorded: normalized”, the “escape latency during training, with versus without drug” value ([1]; Kmt2d+/βGeo animals) is reported as “No significant difference” and the DCX expression ([2]; 10 mg/kg/day, older (5-6 months) Kmt2d+/βGeo mice) is reported as “improved”. For the same compound, the DCX expression ([2]; 25 mg/kg/day, Kmt2d+/+ animals) was “reduced DCX expression”, the DCX expression ([2]; 25 mg/kg/day, Kmt2d+/βGeo mice) was “did not improve DCX expression” and the “DCX expression in the GCL” value ([2]; 25 mg/kg/day, young (1-2 month) and old (5-6 month) mice, both genotypes) was “decreased DCX expression”. For the same compound, the “neurogenesis (normalized DCX expression)” value ([2]; 5 and 10 mg/kg/day, 1-2 month old Kmt2d+/βGeo mice) was “dose-dependent increase in neurogenesis”, the DCX expression ([2]; 5 and 10 mg/kg/day, Kmt2d+/+ or Kmt2d+/βGeo, both age groups) was “preservation or restoration of DCX expression” and the “H3K4me3 in the GCL” value (H3K4me3 in the GCL; 25 mg/kg/day, oral, two weeks) was “increased H3K4 trimethylation; also recorded: increased H3K4me3”. For the same compound, the “H3K4me3 in the GCL” value (H3K4me3 in the GCL; 5 and 10 mg/kg/day, both genotypes) was “dose-dependent increase in H3K4me3”.

Source: US10246498B2, “Genetically encoded histone reporter allele constructs” (THE JOHNS HOPKINS UNIVERSITY, priority 2014, dated 2019)
